Molecular target: Mitogen-activated protein kinase kinase kinase kinase 1 (Homo sapiens, UniProt Q92918)
Test: Inhibition of full length recombinant human N-terminal GST-tagged HPK1 expressed in baculovirus infected Sf21 insect cells preincubated for 15 mins followed by MBP and ATP addition measured after 120 mins by ADP-Glo reagent based assay

Sequence of Mitogen-activated protein kinase kinase kinase kinase 1 (Q92918 whole entry): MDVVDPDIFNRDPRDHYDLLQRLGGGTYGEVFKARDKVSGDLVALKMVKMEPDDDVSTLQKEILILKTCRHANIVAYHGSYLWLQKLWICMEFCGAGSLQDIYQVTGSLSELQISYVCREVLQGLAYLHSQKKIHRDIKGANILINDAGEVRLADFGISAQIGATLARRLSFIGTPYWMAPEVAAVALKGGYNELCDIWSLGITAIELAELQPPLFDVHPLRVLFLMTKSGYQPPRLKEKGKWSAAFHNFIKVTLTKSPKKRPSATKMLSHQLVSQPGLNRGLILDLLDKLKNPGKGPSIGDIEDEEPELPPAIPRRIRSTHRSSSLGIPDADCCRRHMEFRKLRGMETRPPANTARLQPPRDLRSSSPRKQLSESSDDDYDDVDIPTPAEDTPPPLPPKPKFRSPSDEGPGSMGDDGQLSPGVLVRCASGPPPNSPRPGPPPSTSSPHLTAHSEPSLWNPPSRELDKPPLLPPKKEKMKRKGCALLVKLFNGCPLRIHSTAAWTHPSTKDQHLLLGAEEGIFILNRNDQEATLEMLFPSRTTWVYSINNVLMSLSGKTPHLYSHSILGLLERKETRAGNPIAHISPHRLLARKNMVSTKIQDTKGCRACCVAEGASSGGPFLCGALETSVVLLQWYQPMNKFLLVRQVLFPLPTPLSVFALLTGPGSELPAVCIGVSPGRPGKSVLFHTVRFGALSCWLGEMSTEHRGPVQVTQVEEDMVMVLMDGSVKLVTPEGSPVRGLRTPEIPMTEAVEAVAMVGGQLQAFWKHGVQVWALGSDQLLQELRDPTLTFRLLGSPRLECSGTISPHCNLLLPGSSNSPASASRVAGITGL

| SMILES | IC50 |
| --- | --- |
| Cc1c(N2CCc3cnc(Nc4ccc5c(c4)CCOC5)nc3C2)cnc2c1NCCO2 [US20240025922, Example 84] | < 0.1 µM |
| Cc1c(N2CCc3cnc(Nc4ccc(Cn5cccn5)cc4)nc3C2)cnc2c1NCCO2 [US20240025922, Example 187] | < 0.1 µM |
| CCc1c(N2CCc3cnc(Nc4ccc(CS(C)(=O)=O)cc4)nc3C2)cnc2c1NCCO2 [US20240025922, Example 145] | < 0.1 µM |
| COC1CCN(c2ccc(Nc3ncc4c(n3)CN(c3cnc5c(c3C)NCCO5)CC4)cc2)CC1 [US20240025922, Example 113] | < 0.1 µM |
| Cc1c(N2CCc3cnc(Nc4ccc(Cn5nccn5)cc4)nc3C2)cnc2c1NCCO2 [US20240025922, Example 185] | < 0.1 µM |
| Cc1c(N2CCc3cnc(Nc4ccc(N5CCN(C)CC5)cc4)nc3C2)cnc2c1NCCO2 [US20240025922, Example 55] | < 0.1 µM |

Source: BindingDB's records for doi:10.1021/acsmedchemlett.4c00023 (n/a, 2024)
